# B1: CLN0004-52-MMAE (ssDNA)
# DNA: GAGTGCGTAATGGTACGATTTGGGAAGTGGCTTGGGGTGGGATTAGTTTTGG
# modifications: 3'-thiol conjugated to maleimide vcMMAE
# Assays:
# [1] = test system: large triple-negative breast cancer PDX model tumors; assay: Experiment against large tumors in vivo (triple-negative breast cancer PDX); set-up: species or system mice; conditions: tumor 400-500 mm^3; tail vein, 20 mg/kg once every seven days, two times
# Method: Six mice with a tumor size of 400-500 mm^3 in a triple-negative breast cancer PDX model were randomly divided into two groups. In the experiment, the two groups were injected with a clinical first-line chemotherapy drug Docetaxel, and a c-Met targeted aptamer drug conjugate c-Met-ApDC through the tail vein, respectively at a dosage of 20 mg/kg Docetaxel (administrated once every seven days, for two times in total) or 0.36 mg/kg equivalent of MMAE (administrated once every four days, for three times in total). The weights of the mice, the lengths of tumors (a), and the widths of tumors (b) were measured and recorded at each injection. The calculation formula of tumor volume (V) was: V=(a×b^2)/2. The tumor volume exceeding 1,500 mm^3 or the weight loss exceeding 15% was taken as an endpoint of the experiment. The mice were euthanized, and the experiment was terminated. […] On about seven days of administration, the tumor volume in the group administrated with the chemotherapeutic drug began to increase, while the tumor of the group administrated with the reagent of the present invention began to decrease.
# [2] = test system: large triple-negative breast cancer PDX model tumors; assay: Experiment against large tumors in vivo after multiple times of administration; set-up: species or system mice; conditions: Docetaxel alone, 20 mg/kg once every seven days, two times
# Method: Six mice with a tumor size of 400-500 mm^3 in a triple-negative breast cancer PDX model were randomly divided into two groups. In the experiment, the two groups were injected with a clinical first-line chemotherapy drug, Docetaxel and a c-Met targeted aptamer drug conjugate c-Met-ApDC through the tail vein, respectively, at a dosage of 20 mg/kg Docetaxel (administrated once every seven days, for two times in total) or 0.36 mg/kg equivalent of MMAE (administrated once every four days, for three times in total).
# The weights of the mice, the lengths of tumors (a), and the widths of tumors (b) were measured and recorded at each injection. The calculation formula of tumor volume (V) was: V=(a×b^2)/2. The tumor volume exceeding 1,500 mm^3 or the weight loss exceeding 15% was taken as an endpoint of the experiment. The mice were euthanized, and the experiment was terminated. In the group administrated with Docetaxel, 0.36 mg/kg equivalent of MMAE was injected into the mice through the tail vein once every four days continuously for three times after the tumor volume exceeded 1,500 mm^3. […] It was almost less than 200 mm^3 after 44 days.
# [3] = target: T1, c-Met (hepatocyte growth factor receptor) (UniProt P08581 P08581:25-932); assay: SPR; concentrations 100-500 nM; unit μm [sic]
# Method: (§1) The specific experimental process was as follows: the c-Met protein-bound aptamer CLN0004-52 (sequence SEQ: ID2: […]) reported in the literature was selected and modified with a mercapto group at the 3-terminal and then conjugated with vcMMAE to construct the c-Met targeted aptamer drug conjugate CLN0004-52-MMAE. The affinity of CLN0004-52-MMAE and SL1-MMAE with a c-Met protein was characterized by surface plasmon resonance spectroscopy. The binding forces of two c-Met ApDCs were determined at concentrations of 100, 200, 300, 400, and 500 nM. […] Strong affinity stated that it could bind with c-Met more strongly, enhancing the therapeutic effect.
# [4] = target: T1, c-Met (hepatocyte growth factor …); assay: SPR; concentrations 100-500 nM
# Method: as §1
# T1 sequence (P08581 25-932, one chain of several): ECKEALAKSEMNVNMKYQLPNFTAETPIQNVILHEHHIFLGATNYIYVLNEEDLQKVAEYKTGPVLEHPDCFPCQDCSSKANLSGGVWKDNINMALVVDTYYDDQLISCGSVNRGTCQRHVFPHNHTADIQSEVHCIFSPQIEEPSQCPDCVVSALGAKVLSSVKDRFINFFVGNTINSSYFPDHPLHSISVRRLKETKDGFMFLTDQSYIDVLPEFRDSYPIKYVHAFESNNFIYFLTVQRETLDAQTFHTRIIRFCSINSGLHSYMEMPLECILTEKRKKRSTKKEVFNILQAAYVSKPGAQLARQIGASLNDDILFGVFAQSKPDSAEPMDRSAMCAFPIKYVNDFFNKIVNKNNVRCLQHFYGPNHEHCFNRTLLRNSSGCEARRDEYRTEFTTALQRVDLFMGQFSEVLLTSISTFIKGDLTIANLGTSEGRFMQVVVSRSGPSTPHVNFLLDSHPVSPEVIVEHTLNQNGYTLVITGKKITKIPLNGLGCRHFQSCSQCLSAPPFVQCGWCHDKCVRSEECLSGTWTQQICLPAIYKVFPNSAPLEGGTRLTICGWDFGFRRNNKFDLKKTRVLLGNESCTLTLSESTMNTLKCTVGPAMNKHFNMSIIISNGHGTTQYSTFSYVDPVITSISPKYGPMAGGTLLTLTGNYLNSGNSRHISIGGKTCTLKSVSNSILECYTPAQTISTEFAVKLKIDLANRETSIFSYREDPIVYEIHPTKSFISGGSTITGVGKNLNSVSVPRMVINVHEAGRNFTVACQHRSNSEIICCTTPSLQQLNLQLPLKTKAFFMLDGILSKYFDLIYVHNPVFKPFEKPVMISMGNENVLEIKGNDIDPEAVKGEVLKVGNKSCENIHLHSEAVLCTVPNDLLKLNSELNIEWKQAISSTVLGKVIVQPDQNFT
molecule,measurement,setting,value
CC(=O)O[C@@]12CO[C@@H]1C[C@H](O)[C@@]1(C)C(=O)[C@H](O)C3=C(C)[C@@H](OC(=O)[C@H](O)[C@@H](NC(=O)OC(C)(C)C)c4ccccc4)C[C@@](O)([C@@H](OC(=O)c4ccccc4)[C@H]21)C3(C)C [Docetaxel],inhibitory effect on large tumors,[1],no apparent inhibitory effect
same,tumor volume increase,[1],3 times the volume
same,tumor volume course,[2],gradually increased
B1,Kd,[3],21.5 µM
"ATCAGGCTGGATGGTAGCTCGGTCGGGGTGGGTGGGTTGGCAAGTCTGAT (ssDNA, 3'-thiol conjugated to maleimide vcMMAE) [SL1-MMAE (c-Met-ApDC)]",Kd,[4],0.0775 µM
